Reference: patent publication US12559505B2, “IDH mutant inhibitor and use thereof” (WIGEN BIOMEDICINE TECHNOLOGY (SHANGHAI) CO., LTD., priority 2020, dated 2026)

Target: T1, IDH R132C (Homo sapiens, UniProt O75874, R132C)
T1 construct: expressed in transfected cells; host or cells: U87 cells
Experiment: Detection of 2-HG in supernatant of U87-IDH R132C cells
Format: cell-based
Details: 72 h, LC-MS-MS, vs control; for Inhibition rate of compounds on 2-HG in the supernatant of U87-IDH R132C cells, 1 nM / inhibition at 0.001 µM: 1 nM compound; for Inhibition rate of compounds on 2-HG in the supernatant of U87-IDH R132C cells, 10 nM / inhibition at 0.01 µM: 10 nM compound; for Inhibition rate of compounds on 2-HG in the supernatant of U87-IDH R132C cells, 100 nM / inhibition at 0.1 µM: 100 nM compound; for inhibition at 0.001 µM: read-out: Inhibition rate of compounds on 2-HG in the supernatant of U87-IDH R132C cells, 1 nM; for inhibition at 0.01 µM: read-out: Inhibition rate of compounds on 2-HG in the supernatant of U87-IDH R132C cells, 10 nM; for inhibition at 0.1 µM: read-out: Inhibition rate of compounds on 2-HG in the supernatant of U87-IDH R132C cells, 100 nM
Description: U87 cells overexpressing the IDH R132C mutation were seeded in a 48-well plate at 50,000 cells/well. After the cells were incubated overnight for adhesion, the supernatant was removed. The cell culture media containing serially diluted compounds were added, and the cells were incubated for 72 h. After 72 h, the cultures were collected and diluted 10-fold with water, and acetonitrile was added to extract the metabolites. The 2-HG content in the cultures was analyzed by LC-MS-MS, and the percentage inhibition of compounds on 2-HG in the supernatant was calculated as compared with the control.

T1 sequence (O75874 whole entry R132C): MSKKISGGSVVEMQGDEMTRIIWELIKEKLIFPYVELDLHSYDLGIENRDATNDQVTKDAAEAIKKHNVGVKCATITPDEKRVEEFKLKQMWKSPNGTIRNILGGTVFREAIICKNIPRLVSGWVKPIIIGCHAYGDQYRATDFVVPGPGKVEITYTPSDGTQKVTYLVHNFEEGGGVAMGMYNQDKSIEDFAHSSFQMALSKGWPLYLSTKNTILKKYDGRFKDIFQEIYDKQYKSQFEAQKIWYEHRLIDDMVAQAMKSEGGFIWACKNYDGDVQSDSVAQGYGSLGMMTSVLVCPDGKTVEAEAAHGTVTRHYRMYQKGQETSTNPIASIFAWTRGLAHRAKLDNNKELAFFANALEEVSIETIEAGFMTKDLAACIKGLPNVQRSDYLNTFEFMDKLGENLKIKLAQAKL

inhibition at 0.001 µM [%]	inhibition at 0.01 µM [%]	inhibition at 0.1 µM [%]	Compound	Inhibition rate of compounds on 2-HG in the supernatant of U87-IDH R132C cells, 1 nM	Inhibition rate of compounds on 2-HG in the supernatant of U87-IDH R132C cells, 10 nM	Inhibition rate of compounds on 2-HG in the supernatant of U87-IDH R132C cells, 100 nM
			C=CC(=O)N1CC2(CC([C@@H](CC3CCC3)c3ccc([C@H](C)Nc4ncc5c(n4)N(CC)C(=O)OC5)cc3)C2)C1 [Compound 1-1]	C (C represents an inhibition rate greater than 30% but less than or equal to 60%)	A (A represents an inhibition rate greater than 90%)	A (A represents an inhibition rate greater than 90%)
30 to 60	> 90	> 90	C=CC(=O)NC1CCN(C(CC2CC2)c2ccc([C@H](C)Nc3ncc4c(n3)N(CC)C(=O)OC4)cc2)CC1 (stereo partly drawn) [Compound 11]			
30 to 60	> 90	> 90	C=CC(=O)NC1CN(C(CC2CC2)c2ccc([C@H](C)Nc3ncc4c(n3)N(CC)C(=O)OC4)cc2)C1 (stereo partly drawn) [Compound 14]			
30 to 60	60 to 90	> 90	C=CC(=O)N(C)C1CCN(C(CC2CC2)c2ccc([C@H](C)Nc3ncc4c(n3)N(CC)C(=O)OC4)cc2)CC1 (stereo partly drawn) [Compound 16]			
30 to 60	> 90	> 90	C=CC(=O)N(C)C1CN(C(CC2CC2)c2ccc([C@H](C)Nc3ncc4c(n3)N(CC)C(=O)OC4)cc2)C1 (stereo partly drawn) [Compound 19]			
< 30	60 to 90	> 90	C=CC(=O)NC1CCN(C(CC2CC2)c2ccc([C@H](C)Nc3ncc4c(n3)N(C(C)C)C(=O)OC4)cc2)CC1 (stereo partly drawn) [Compound 22]			
30 to 60	60 to 90	> 90	C=CC(=O)NC1CN(C(CC2CC2)c2ccc([C@H](C)Nc3ncc4c(n3)N(C(C)C)C(=O)OC4)cc2)C1 (stereo partly drawn) [Compound 23]			
30 to 60	> 90	> 90	C=CC(=O)N(C)C1CCN(C(CC2CC2)c2ccc([C@H](C)Nc3ncc4c(n3)N(C(C)C)C(=O)OC4)cc2)CC1 (stereo partly drawn) [Compound 24]			
30 to 60	> 90	> 90	C=CC(=O)N(C)C1CN(C(CC2CC2)c2ccc([C@H](C)Nc3ncc4c(n3)N(C(C)C)C(=O)OC4)cc2)C1 (stereo partly drawn) [Compound 25]			
30 to 60	60 to 90	> 90	C=CC(=O)N1CC2(C1)CN(C(CC1CC1)c1ccc(C3(Nc4ncc5c(n4)N(CC)C(=O)OC5)CC3)cc1)C2 (stereo not drawn) [Compound 26]			
30 to 60	60 to 90	> 90	C=CC(=O)NC1CCN(C(CC2CC2)c2ccc(C3(Nc4ncc5c(n4)N(CC)C(=O)OC5)CC3)cc2)CC1 (stereo not drawn) [Compound 27]			
< 30	60 to 90	> 90	C=CC(=O)NC1CN(C(CC2CC2)c2ccc(C3(Nc4ncc5c(n4)N(CC)C(=O)OC5)CC3)cc2)C1 (stereo not drawn) [Compound 28]			
< 30	60 to 90	> 90	C=CC(=O)N(C)C1CCN(C(CC2CC2)c2ccc(C3(Nc4ncc5c(n4)N(CC)C(=O)OC5)CC3)cc2)CC1 (stereo not drawn) [Compound 29]			
30 to 60	60 to 90	> 90	C=CC(=O)N(C)C1CN(C(CC2CC2)c2ccc(C3(Nc4ncc5c(n4)N(CC)C(=O)OC5)CC3)cc2)C1 (stereo not drawn) [Compound 30]			
< 30	60 to 90	> 90	C=CC(=O)N1CC2(C1)CN(C(CC1CC1)c1ccc(C3(Nc4ncc5c(n4)N(C(C)C)C(=O)OC5)CC3)cc1)C2 (stereo not drawn) [Compound 31]			
30 to 60	30 to 60	> 90	C=CC(=O)NC1CCN(C(CC2CC2)c2ccc(C3(Nc4ncc5c(n4)N(C(C)C)C(=O)OC5)CC3)cc2)CC1 (stereo not drawn) [Compound 32]			
60 to 90	> 90	> 90	C=CC(=O)N1CC2(C1)CN([C@@H](CC)c1ccc([C@H](C)Nc3ncc4c(n3)N(CC)C(=O)OC4)cc1)C2 [Compound 36-1]			
			C=CC(=O)N1CC2(CC([C@H](CC)c3ccc(CNc4ncc5c(n4)N(CC)C(=O)OC5)cc3)C2)C1 [Compound 36-2]	B (B represents an inhibition rate greater than 60% but less than or equal to 90%)	B (B represents an inhibition rate greater than 60% but less than or equal to 90%)	A (A represents an inhibition rate greater than 90%)
60 to 90	> 90	> 90	C=CC(=O)N1CC2(C1)CN(C(CC)c1ccc([C@H](C)Nc3ncc4c(n3)N(CC)C(=O)OC4)cc1)C2 (stereo partly drawn) [Compound 36]			

inhibition at 0.001 µM [%]	inhibition at 0.01 µM [%]	inhibition at 0.1 µM [%]	Compound	Inhibition rate of compounds on 2-HG in the supernatant of U87-IDH R132C cells, 1 nM	Inhibition rate of compounds on 2-HG in the supernatant of U87-IDH R132C cells, 10 nM	Inhibition rate of compounds on 2-HG in the supernatant of U87-IDH R132C cells, 100 nM
30 to 60	> 90	> 90	C=CC(=O)N1CC2(C1)CN(C(CC(C)C)c1ccc([C@H](C)Nc3ncc4c(n3)N(CC)C(=O)OC4)cc1)C2 (stereo partly drawn) [Compound 41]			
60 to 90	> 90	> 90	C=CC(=O)N1CC2(C1)CN(C(CC)c1ccc([C@H](C)Nc3ncc4c(n3)N(C(C)C)C(=O)OC4)cc1)C2 (stereo partly drawn) [Compound 46]			
60 to 90	> 90	> 90	C=CC(=O)N1CC2(C1)CN(C(CC(C)C)c1ccc([C@H](C)Nc3ncc4c(n3)N(C(C)C)C(=O)OC4)cc1)C2 (stereo partly drawn) [Compound 47]			
30 to 60	60 to 90	> 90	C=CC(=O)N1CC2(C1)CN(C(CC1CC1)c1ccc([C@H](C)Nc3ncc4c(n3)N(CCC)C(=O)OC4)cc1)C2 (stereo partly drawn) [Compound 53]			
60 to 90	60 to 90	> 90	C=CC(=O)N1CC2(C1)CN(C(CC1CC1)c1ccc([C@H](C)Nc3ncc4c(n3)N(CC(C)C)C(=O)OC4)cc1)C2 (stereo partly drawn) [Compound 54]			
30 to 60	60 to 90	> 90	C=CC(=O)N1CC2(C1)CN(C(CC(C)(C)C)c1ccc([C@H](C)Nc3ncc4c(n3)N(CC)C(=O)OC4)cc1)C2 (stereo partly drawn) [Compound 59]			
30 to 60	> 90	> 90	C=CC(=O)N1CC2(C1)CN(C(CC1CCC1)c1ccc([C@H](C)Nc3ncc4c(n3)N(CC)C(=O)OC4)cc1)C2 (stereo partly drawn) [Compound 63]			
30 to 60	> 90	> 90	C=CC(=O)N1CC2(C1)CN(C(CC1(C)CC1)c1ccc([C@H](C)Nc3ncc4c(n3)N(CC)C(=O)OC4)cc1)C2 (stereo partly drawn) [Compound 65]			
60 to 90	> 90	> 90	C=CC(=O)N1CC2(C1)CN([C@@H](CC13CC(C1)C3)c1ccc([C@H](C)Nc3ncc4c(n3)N(CC)C(=O)OC4)cc1)C2 [Compound 66-1]			
30 to 60	60 to 90	> 90	C=CC(=O)N1CC2(C1)CN([C@H](CC13CC(C1)C3)c1ccc([C@H](C)Nc3ncc4c(n3)N(CC)C(=O)OC4)cc1)C2 [Compound 66-2]			
60 to 90	> 90	> 90	C=CC(=O)N1CC2(C1)CN(C(CC13CC(C1)C3)c1ccc([C@H](C)Nc3ncc4c(n3)N(CC)C(=O)OC4)cc1)C2 (stereo partly drawn) [Compound 66]			
30 to 60	> 90	> 90	C=CC(=O)N1CCN(C(CC2(C)CC2)c2ccc([C@H](C)Nc3ncc4c(n3)N(CC)C(=O)NC4)cc2)CC1 (stereo partly drawn) [Compound 69]			
60 to 90	> 90	> 90	C=CC(=O)N1CCN([C@@H](CC23CC(C2)C3)c2ccc([C@H](C)Nc3ncc4c(n3)N(CC)C(=O)NC4)cc2)CC1 [Compound 70-1]			
60 to 90	60 to 90	> 90	C=CC(=O)N1CCN([C@H](CC23CC(C2)C3)c2ccc([C@H](C)Nc3ncc4c(n3)N(CC)C(=O)NC4)cc2)CC1 [Compound 70-2]			
30 to 60	> 90	> 90	C=CC(=O)N1CC2(C1)CN(C(CC1(C)CC1)c1ccc([C@H](C)Nc3ncc4c(n3)N(CC)C(=O)NC4)cc1)C2 (stereo partly drawn) [Compound 71]			
60 to 90	> 90	> 90	C=CC(=O)N1CC2(C1)CN([C@@H](CC13CC(C1)C3)c1ccc([C@H](C)Nc3ncc4c(n3)N(CC)C(=O)NC4)cc1)C2 [Compound 72-1]			
30 to 60	60 to 90	> 90	C=CC(=O)N1CC2(C1)CN([C@H](CC13CC(C1)C3)c1ccc([C@H](C)Nc3ncc4c(n3)N(CC)C(=O)NC4)cc1)C2 [Compound 72-2]			
60 to 90	> 90	> 90	C=CC(=O)N1CC2(C1)CN(C(CC13CC(C1)C3)c1ccc([C@H](C)Nc3ncc4c(n3)N(CC)C(=O)NC4)cc1)C2 (stereo partly drawn) [Compound 72]			
30 to 60	60 to 90	> 90	C=CC(=O)N1CCN(C(CC)c2ccc([C@H](C)Nc3ncc4c(n3)N(C(C)C)C(=O)NC4)cc2)CC1 (stereo partly drawn) [Compound 80]			
